Patent US20210002242A1, “DIACYLGLYCEROL LACTONE COMPOUND, PREPARATION METHOD THEREFOR, AND IMMUNOSTIMULATOR CONTAINING SAME AS ACTIVE INGREDIENT” (priority 2018, published 2021)

Experiments:
[1] = test system: CXCL8 (IL-8); test: Increase in expression of CXCL8 (IL-8) in THP-1 cells, human IL-8 ELISA of culture supernatant; format: cell-based; conditions: for CXCL8 [IL-8] concentration (pg/μl, average ± deviation): THP-1 cells, 24 hours, supernatant
Method: In RPMI (Hyclone, Thermo Scientific) medium to which 10% Fetal Bovine Serum was added, THP-1 cells, a human macrophage family, were suspended at a concentration of 1×10^5 cells/ml, and culture was conducted in a 5% CO2 humidified incubator at 37° C. The cultured THP-1 cells were inoculated into a 12 well plate by 1×10^6 cells/ml and stabilized for 30 minutes. Then, the culture solution was treated with a diacylglycerol lactone compound of the type shown in Table 2 below for 1 hour and then was treated with Gemcitabine (2 μg/ml) of a cell stimulator, and subsequent further incubation was conducted for 24 hours. Thereafter 1.5 ml of the culture supernatant was collected for each well and centrifuged (at 3000 rpm, 5 minutes) to recover the supernatant. The CXCL8 (IL-8) level in the recovered supernatant was measured according to the manual provided by the human IL-8 ELISA set (BD Biosciences). The day before ELISA was carried out, the IL-8 capture antibody was diluted in phosphate buffered saline, coated on a microwell, and then stored at 4° C. overnight. Each well was washed three times with a washing buffer solution and then blocked with 2% Bovine Serum Albumin (BSA) for 1 hour at room temperature. After washing with washing buffer solution three times, 100 μl of sample was dispensed into each well and left at room temperature for 2 hours. Detection antibody which was washed 3 times with washing buffer and diluted was dispensed into each well and allowed to react at room temperature for 1 hour and left at room temperature for 1 hour. Thereafter, the secondary HRP conjugated antibody was reacted at room temperature for 30 minutes, washed three times with a washing buffer, and treated with 50 μl of stop solution for each well, and then the optical density was measured at 450 nm with an ELISA microplate leader.

[2] = test system: RAW264.7 cells; test: Cytotoxicity assessment, cell viability by EZ-Cytox (WST), OD 450 nm; format: cell-based, mouse; conditions: 100 μg/ml, 24 hours
Method: In DMEM (Dulbecco Modified Eagle Medium) medium with 10% Fetal Bovine Serum added, RAW264.7 cells, which are cells of the mouse macrophage family, were suspended at a concentration of 1×10^5 cells/ml, and then were inoculated into 96 well plates by 100 μl, and culture was conducted for 15 hours. […] According to the EZ-CYTOX (Daeillab_EZ-1000) manual for measuring the amount of living cells using WST, 10 μl of EZ-Cytox was added to each well and reacted for up to 2 hours from 30 minutes, and then an optical density (OD) at 450 nm was measured.

[3] = compound 100 μg/ml for 1 hour, then Gemcitabine 2 μg/ml

CCCCC/C=C\C/C=C\CCCCCCCC(=O)OCC1(COC(=O)CCCCC)CCC(=O)O1 (racemic) [EC-A118]
CXCL8 [IL-8] concentration (pg/μl, average ± deviation) [1, 3]: 622.16 ± 6.61 pg/µL

CCCCC/C=C\C/C=C\CCCCCCCC(=O)OCC1(COC(=O)CCCC)CCC(=O)O1 (racemic) [EC-A117]
CXCL8 [IL-8] concentration (pg/μl, average ± deviation) [1, 3]: 568.12 ± 8.21 pg/µL

CCCCCCCCCCCCCCCC(=O)OCC1(COC(=O)C(C)(C)C)CCC(=O)O1 (stereo not shown) [EC-A132]
CXCL8 [IL-8] concentration (pg/μl, average ± deviation) [1, 3]: 921.35 ± 52.46 pg/µL
RAW264.7 cell viability [2]: 96.58 ± 5.01%

CCCCC/C=C\C/C=C\CCCCCCCC(=O)OCC1(COC(=O)CCCCCCCCCCC)CCC(=O)O1 (racemic) [EC-A121]
CXCL8 [IL-8] concentration (pg/μl, average ± deviation) [1, 3]: 215.38 ± 4.33 pg/µL
RAW264.7 cell viability [2]: 114.25 ± 33.11%

CCCCC/C=C\C/C=C\CCCCCCCC(=O)OCC1(COC(=O)C(C)(C)C)CCC(=O)O1 (racemic) [EC-A125]
CXCL8 [IL-8] concentration (pg/μl, average ± deviation) [1, 3]: 252 ± 11.86 pg/µL

CCCCCCCCCCCCCCCC(=O)OCC1(COC(=O)C(C)C)CCC(=O)O1 (racemic) [EC-A131]
CXCL8 [IL-8] concentration (pg/μl, average ± deviation) [1, 3]: 1256.19 ± 15.96 pg/µL
RAW264.7 cell viability [2]: 100.25 ± 14.78%

Nc1ccn([C@@H]2O[C@H](CO)[C@@H](O)C2(F)F)c(=O)n1 [Gemcitabine, reference compound]
secretion of CXCL8 (IL-8) chemokine, increase compared to the negative control group ([1]; THP-1 cells treated with Gemcitabine): about five
CXCL8 [IL-8] concentration (pg/μl, average ± deviation) ([1]; Gemcitabine 2 μg/ml alone): 101.83 ± 1.59 pg/µL

CCCCC/C=C\C/C=C\CCCCCCCC(=O)OCC1(COC(=O)C2CCCCC2)CCC(=O)O1 (racemic) [EC-A128]
CXCL8 [IL-8] concentration (pg/μl, average ± deviation) [1, 3]: 351.03 ± 7.75 pg/µL

CCCCC/C=C\C/C=C\CCCCCCCC(=O)OCC1(COC(=O)CC)CCC(=O)O1 (racemic) [EC-A115]
CXCL8 [IL-8] concentration (pg/μl, average ± deviation) [1, 3]: 1202.80 ± 38.09 pg/µL

CCCCCCCCCCCCCCCC(=O)OCC1(COC(=O)CCCCCCCCCCCCC)CCC(=O)O1 (stereo not shown) [EC-A137]
CXCL8 [IL-8] concentration (pg/μl, average ± deviation) [1, 3]: 133.12 ± 8.43 pg/µL
RAW264.7 cell viability [2]: 93.87 ± 8.85%

CCCCCC=CCC=CCCCCCCCC(=O)OCC1(COC(=O)C(C)CC)CCC(=O)O1 (mixture of isomers) [EC-A126]
CXCL8 [IL-8] concentration (pg/μl, average ± deviation) [1, 3]: 352.96 ± 0.45 pg/µL

CCCCC/C=C\C/C=C\CCCCCCCC(=O)OCC1(COC(=O)C2CC2)CCC(=O)O1 (racemic) [EC-A127]
CXCL8 [IL-8] concentration (pg/μl, average ± deviation) [1, 3]: 532.32 ± 1.82 pg/µL

CCCCC/C=C\C/C=C\CCCCCCCC(=O)OCC1(COC(=O)CCCCCC)CCC(=O)O1 (racemic) [EC-A119]
CXCL8 [IL-8] concentration (pg/μl, average ± deviation) [1, 3]: 343.61 ± 7.75 pg/µL

CCCCC/C=C\C/C=C\CCCCCCCC(=O)OCC1(COC(=O)CCCCCCCC)CCC(=O)O1 (racemic) [EC-A120]
CXCL8 [IL-8] concentration (pg/μl, average ± deviation) [1, 3]: 237.80 ± 3.64 pg/µL

CCCCC/C=C\C/C=C\CCCCCCCC(=O)OCC1(COC(=O)CCCCCCCCCCCCC)CCC(=O)O1 (racemic) [EC-A122]
CXCL8 [IL-8] concentration (pg/μl, average ± deviation) [1, 3]: 190.06 ± 4.56 pg/µL
RAW264.7 cell viability [2]: 105.48 ± 3.92%

CCCCC/C=C\C/C=C\CCCCCCCC(=O)OCC1(COC(=O)CCC)CCC(=O)O1 (racemic) [EC-A116]
CXCL8 [IL-8] concentration (pg/μl, average ± deviation) [1, 3]: 865.54 ± 12.31 pg/µL
RAW264.7 cell viability [2]: 141.09 ± 5.01%

CCCCCCCCCCCCCCCC(=O)OCC1(COC(=O)C2CCCCC2)CCC(=O)O1 (stereo not shown) [EC-A135]
CXCL8 [IL-8] concentration (pg/μl, average ± deviation) [1, 3]: 310.87 ± 14.37 pg/µL

CCCCC/C=C\C/C=C\CCCCCCCC(=O)OCC1(COC(=O)C(C)C)CCC(=O)O1 (racemic) [EC-A124]
CXCL8 [IL-8] concentration (pg/μl, average ± deviation) [1, 3]: 663.45 ± 2.96 pg/µL

CCCCCCCCCCCCCCCC(=O)OCC1(COC(=O)CCCCCCCCCCC)CCC(=O)O1 (stereo not shown) [EC-A136]
CXCL8 [IL-8] concentration (pg/μl, average ± deviation) [1, 3]: 138.93 ± 2.96 pg/µL
RAW264.7 cell viability [2]: 95.54 ± 3.01%

CCCCCCCCCCCCCCCC(=O)OCC1(COC(=O)C(C)CC)CCC(=O)O1 (stereo not shown) [EC-A133]
CXCL8 [IL-8] concentration (pg/μl, average ± deviation) [1, 3]: 1176.67 ± 29.42 pg/µL
RAW264.7 cell viability [2]: 114.45 ± 3.46%

CCCCCCCCCCCCCCCC(=O)OCC1(COC(=O)C2CC2)CCC(=O)O1 (stereo not shown) [EC-A134]
CXCL8 [IL-8] concentration (pg/μl, average ± deviation) [1, 3]: 1266.03 ± 2.05 pg/µL
RAW264.7 cell viability [2]: 110.06 ± 4.19%
